US6369080B2, “Selective factor Xa inhibitors” (COR Therapeutics, Inc., priority 1996, dated 2002)

Target: T1, thrombin (Homo sapiens, UniProt P00734)
T1 construct: converts the zymogen prothrombin into the active procoagulant thrombin
Assay: Thrombin amidolytic assay (chromogenic substrate Chromozym TH)
Type: biochemical
Conditions: room temperature, pH 7.5, 5 minutes preincubation
Description: The compounds of the present invention are first dissolved in a buffer to give solutions containing concentrations such that assay concentrations range from 0-100 μM. In assays for thrombin, prothrombinase and factor Xa, a synthetic chromogenic substrate would be added to a solution containing a test compound and the enzyme of interest and the residual catalytic activity of that enzyme would then be determined spectrophotometrically.
The IC50 of a compound is determined from the substrate turnover. The IC50 is the concentration of test compound giving 50% inhibition of the substrate turnover.
Factor Xa and thrombin assays are performed at room temperature, in 0.02 M Tris HCl buffer, pH 7.5, containing 0.15 M NaCl. The rates of hydrolysis of the paranitroanilide substrate S-2765 (Chromogenix) for factor Xa, and the substrate Chromozym TH (Boehringer Mannheim) for thrombin following preincubation of the enzyme with the test compound for 5 minutes at room temperature are determined using a Softmax 96-well plate reader (Molecular Devices), monitored at 405 nm to measure the time dependent appearance of p-nitroanilide.

Structure (SMILES): N=C(N)NCCC[C@H](NC(=O)Cn1cccc(NS(=O)(=O)Cc2ccccc2)c1=O)C(=O)c1nccs1 [Example 9]
- IC50: 8 nM
